How the values were obtained:
Experiment in all cases: apparent dissociation constant Kd app (Kinobeads competition, EC50 x correction factor)
Settings in all cases: lysate: Jurkat cell lysate
ACVR1 = ACVR1 (UniProt Q04771)
AURKB = AURKB (UniProt Q96GD4)
CDC42BPA = CDC42BPA (UniProt Q5VT25)
CDK1 = CDK1 (UniProt P06493)
CSK = CSK (UniProt P41240)
FGFR1 = FGFR1 (UniProt P11362)
ITK = ITK (UniProt Q08881)
LATS1 = LATS1 (UniProt O95835)
MAP3K11 = MAP3K11 (UniProt Q16584)
MAP3K4 = MAP3K4 (UniProt Q9Y6R4)
NEK9 = NEK9 (UniProt Q8TD19)
PAK4 = PAK4 (UniProt O96013)
PHKG2 = PHKG2 (UniProt P15735)
PKN1 = PKN1 (UniProt Q16512)
PRKAA1 = PRKAA1 (UniProt Q13131)
PRKCA = PRKCA (UniProt P17252)
PRKD3 = PRKD3 (UniProt O94806)
ROCK1 = ROCK1 (UniProt Q13464)
SRC = SRC (UniProt P12931)
TAOK2 = TAOK2 (UniProt Q9UL54)
TAOK3 = TAOK3 (UniProt Q9H2K8)
TGFBR1 = TGFBR1 (UniProt P36897)

NEK9, sequence (Q8TD19 whole entry): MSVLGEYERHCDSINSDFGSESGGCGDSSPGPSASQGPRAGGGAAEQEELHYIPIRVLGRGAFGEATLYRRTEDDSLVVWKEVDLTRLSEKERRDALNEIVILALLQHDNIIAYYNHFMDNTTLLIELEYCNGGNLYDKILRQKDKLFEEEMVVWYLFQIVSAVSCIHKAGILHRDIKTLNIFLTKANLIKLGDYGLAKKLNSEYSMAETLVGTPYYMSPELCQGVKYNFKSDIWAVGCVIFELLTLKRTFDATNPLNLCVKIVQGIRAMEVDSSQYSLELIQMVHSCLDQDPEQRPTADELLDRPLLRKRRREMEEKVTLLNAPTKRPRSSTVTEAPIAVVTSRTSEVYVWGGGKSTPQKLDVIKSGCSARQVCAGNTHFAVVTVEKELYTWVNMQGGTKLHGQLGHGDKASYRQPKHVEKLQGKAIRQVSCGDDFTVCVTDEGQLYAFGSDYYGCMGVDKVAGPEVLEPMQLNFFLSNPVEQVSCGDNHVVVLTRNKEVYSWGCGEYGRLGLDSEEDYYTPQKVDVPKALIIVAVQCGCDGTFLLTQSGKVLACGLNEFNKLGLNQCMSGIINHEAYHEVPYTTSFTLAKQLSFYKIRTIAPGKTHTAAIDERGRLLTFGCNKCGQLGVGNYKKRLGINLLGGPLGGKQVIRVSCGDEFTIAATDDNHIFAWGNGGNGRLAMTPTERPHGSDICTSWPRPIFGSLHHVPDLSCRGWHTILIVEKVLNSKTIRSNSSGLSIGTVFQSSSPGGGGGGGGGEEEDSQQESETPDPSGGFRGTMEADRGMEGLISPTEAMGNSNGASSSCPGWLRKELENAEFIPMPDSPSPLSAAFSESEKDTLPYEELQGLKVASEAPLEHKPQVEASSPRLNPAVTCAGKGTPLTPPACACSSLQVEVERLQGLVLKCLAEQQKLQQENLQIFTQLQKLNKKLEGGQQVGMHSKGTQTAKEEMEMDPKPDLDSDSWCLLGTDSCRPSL
CSK, sequence (P41240 whole entry, looked up): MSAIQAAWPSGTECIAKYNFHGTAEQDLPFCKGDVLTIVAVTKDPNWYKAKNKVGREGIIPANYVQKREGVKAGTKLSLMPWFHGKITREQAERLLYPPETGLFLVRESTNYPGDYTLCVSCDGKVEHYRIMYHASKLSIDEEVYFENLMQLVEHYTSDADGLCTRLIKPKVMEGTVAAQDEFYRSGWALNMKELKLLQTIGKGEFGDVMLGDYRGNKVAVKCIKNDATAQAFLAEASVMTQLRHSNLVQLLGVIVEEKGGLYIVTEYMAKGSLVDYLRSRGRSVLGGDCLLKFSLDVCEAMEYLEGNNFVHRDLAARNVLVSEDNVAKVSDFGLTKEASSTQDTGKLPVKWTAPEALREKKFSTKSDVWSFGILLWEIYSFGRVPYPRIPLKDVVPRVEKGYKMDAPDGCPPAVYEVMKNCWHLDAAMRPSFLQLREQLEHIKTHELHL
PAK4, sequence (O96013 whole entry, looked up): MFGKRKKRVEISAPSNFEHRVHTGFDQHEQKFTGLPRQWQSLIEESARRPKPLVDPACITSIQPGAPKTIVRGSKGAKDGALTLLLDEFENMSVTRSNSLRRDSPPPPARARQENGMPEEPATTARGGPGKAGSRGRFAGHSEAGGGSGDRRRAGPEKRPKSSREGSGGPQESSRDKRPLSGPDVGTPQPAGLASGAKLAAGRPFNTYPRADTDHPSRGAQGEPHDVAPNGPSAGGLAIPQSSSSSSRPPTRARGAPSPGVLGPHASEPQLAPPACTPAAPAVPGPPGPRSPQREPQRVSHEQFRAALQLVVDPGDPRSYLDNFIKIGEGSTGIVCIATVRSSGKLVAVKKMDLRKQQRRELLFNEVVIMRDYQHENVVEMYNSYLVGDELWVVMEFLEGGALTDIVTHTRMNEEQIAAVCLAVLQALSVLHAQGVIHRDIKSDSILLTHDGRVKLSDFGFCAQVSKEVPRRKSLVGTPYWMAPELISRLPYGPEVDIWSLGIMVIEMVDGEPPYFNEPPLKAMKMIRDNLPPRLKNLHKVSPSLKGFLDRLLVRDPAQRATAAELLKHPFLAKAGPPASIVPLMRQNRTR
TAOK3, sequence (Q9H2K8 whole entry): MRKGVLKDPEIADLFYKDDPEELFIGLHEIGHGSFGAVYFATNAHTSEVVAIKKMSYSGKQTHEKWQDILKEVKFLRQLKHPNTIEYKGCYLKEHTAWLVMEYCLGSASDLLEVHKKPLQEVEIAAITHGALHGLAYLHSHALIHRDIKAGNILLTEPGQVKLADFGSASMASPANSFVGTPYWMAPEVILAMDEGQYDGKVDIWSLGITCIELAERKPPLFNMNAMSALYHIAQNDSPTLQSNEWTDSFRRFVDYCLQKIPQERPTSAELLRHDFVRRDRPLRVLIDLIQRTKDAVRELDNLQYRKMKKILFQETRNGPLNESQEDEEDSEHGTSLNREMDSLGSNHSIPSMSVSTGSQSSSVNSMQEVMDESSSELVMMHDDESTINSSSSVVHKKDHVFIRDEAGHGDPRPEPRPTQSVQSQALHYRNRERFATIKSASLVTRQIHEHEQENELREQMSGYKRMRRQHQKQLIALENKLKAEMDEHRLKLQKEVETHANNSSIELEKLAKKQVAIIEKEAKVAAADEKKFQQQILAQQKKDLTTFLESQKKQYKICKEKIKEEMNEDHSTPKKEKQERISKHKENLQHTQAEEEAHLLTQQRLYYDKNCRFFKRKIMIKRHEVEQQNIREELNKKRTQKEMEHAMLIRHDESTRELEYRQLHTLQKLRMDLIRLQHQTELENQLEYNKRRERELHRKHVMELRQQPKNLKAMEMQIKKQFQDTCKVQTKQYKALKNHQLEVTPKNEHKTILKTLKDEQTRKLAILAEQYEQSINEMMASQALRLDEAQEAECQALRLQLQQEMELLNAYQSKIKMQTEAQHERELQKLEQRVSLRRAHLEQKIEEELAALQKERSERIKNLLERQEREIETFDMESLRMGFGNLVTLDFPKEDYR
PKN1, sequence (Q16512 whole entry, looked up): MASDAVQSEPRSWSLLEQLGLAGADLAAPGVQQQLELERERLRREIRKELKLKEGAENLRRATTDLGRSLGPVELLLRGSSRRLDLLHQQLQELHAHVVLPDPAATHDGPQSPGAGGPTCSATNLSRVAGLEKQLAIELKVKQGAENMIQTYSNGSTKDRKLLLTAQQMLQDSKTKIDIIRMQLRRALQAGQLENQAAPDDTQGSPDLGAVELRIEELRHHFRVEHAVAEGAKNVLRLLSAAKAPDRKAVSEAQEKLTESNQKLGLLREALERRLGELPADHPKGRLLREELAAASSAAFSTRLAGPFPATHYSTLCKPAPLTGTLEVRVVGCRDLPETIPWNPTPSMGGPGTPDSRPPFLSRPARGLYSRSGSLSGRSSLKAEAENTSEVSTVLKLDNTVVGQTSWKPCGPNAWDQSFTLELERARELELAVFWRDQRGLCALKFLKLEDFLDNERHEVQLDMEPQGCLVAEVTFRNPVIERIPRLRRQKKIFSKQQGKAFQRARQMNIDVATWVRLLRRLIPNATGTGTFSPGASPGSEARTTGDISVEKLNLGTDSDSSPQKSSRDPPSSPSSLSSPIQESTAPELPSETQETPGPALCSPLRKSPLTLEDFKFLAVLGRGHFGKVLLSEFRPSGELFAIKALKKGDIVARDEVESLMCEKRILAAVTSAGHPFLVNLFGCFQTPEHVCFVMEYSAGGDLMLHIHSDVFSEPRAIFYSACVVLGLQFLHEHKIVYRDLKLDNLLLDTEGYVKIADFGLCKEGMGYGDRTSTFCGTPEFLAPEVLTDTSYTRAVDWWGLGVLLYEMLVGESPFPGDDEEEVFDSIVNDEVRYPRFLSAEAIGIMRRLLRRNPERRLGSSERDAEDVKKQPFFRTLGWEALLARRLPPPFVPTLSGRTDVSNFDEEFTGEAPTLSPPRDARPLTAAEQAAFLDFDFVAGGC
PHKG2, sequence (P15735 whole entry): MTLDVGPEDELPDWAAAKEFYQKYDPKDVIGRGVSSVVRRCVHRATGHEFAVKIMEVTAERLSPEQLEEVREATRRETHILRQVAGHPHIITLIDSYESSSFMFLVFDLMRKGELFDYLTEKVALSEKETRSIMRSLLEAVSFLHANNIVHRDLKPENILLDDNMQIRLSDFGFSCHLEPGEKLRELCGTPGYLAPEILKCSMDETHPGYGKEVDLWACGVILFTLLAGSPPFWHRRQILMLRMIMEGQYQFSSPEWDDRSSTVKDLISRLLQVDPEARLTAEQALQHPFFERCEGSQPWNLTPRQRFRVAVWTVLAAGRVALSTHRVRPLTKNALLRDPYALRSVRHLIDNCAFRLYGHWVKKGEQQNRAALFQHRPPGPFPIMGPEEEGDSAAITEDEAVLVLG

## NC(=O)c1ccccc1Nc1nc(Nc2ccc(N3CCNCC3)cc2)ncc1Cl
ACVR1
  Kd: 1270 nM
AURKB
  Kd: 35.6 nM
CDC42BPA
  Kd: 1320 nM
CDK1
  Kd: 1910 nM
CSK
  Kd: 2170 nM
FGFR1
  Kd: 144 nM
ITK
  Kd: 38.6 nM
LATS1
  Kd: 48.9 nM
MAP3K11
  Kd: 231 nM
MAP3K4
  Kd: 90 nM
NEK9
  Kd: 96.2 nM
PAK4
  Kd: 424 nM
PHKG2
  Kd: 1150 nM
PKN1
  Kd: 1520 nM
PRKAA1
  Kd: 83 nM
PRKCA
  Kd: 966 nM
PRKD3
  Kd: 255 nM
ROCK1
  Kd: 2000 nM
SRC
  Kd: 808 nM
TAOK2
  Kd: 558 nM
TAOK3
  Kd: 878 nM
TGFBR1
  Kd: 1370 nM

Reference: the supplement of paper PMC11851430, “Workflow for E3 Ligase Ligand Validation for PROTAC Development” (ACS Chemical Biology, 2025)
